Series [1] is described as follows: stability test of human liver microsomes. Type of series: in vitro ADME.
Series [2] has as its target T1, DPP-4 enzyme (Homo sapiens, UniProt P27487).
T1 construct: purchased SIGMA
Put plainly: Test of the inhibition activity to the DPP-4 enzyme (fluorescence, substrate Gly-Pro-7-amido-4-methylcoumarin). The following applies: in vitro; compounds of the examples; read-out: DPP-4 inhibition ID50. Type of series: biochemical. The source says: Test of the inhibition activity of the compound of the present invention to the DPP-4 enzyme: […]

These results are taken from patent publication US20170217964A1, “AMINOTETRAHYDROPYRAN DERIVATIVE USED AS DIPEPTIDYL PEPTIDASEIV INHIBITOR” (FUJIAN BORO MEDICAL CO., LTD., priority 2014, published 2017).

T1 sequence (P27487 whole entry, species assumed): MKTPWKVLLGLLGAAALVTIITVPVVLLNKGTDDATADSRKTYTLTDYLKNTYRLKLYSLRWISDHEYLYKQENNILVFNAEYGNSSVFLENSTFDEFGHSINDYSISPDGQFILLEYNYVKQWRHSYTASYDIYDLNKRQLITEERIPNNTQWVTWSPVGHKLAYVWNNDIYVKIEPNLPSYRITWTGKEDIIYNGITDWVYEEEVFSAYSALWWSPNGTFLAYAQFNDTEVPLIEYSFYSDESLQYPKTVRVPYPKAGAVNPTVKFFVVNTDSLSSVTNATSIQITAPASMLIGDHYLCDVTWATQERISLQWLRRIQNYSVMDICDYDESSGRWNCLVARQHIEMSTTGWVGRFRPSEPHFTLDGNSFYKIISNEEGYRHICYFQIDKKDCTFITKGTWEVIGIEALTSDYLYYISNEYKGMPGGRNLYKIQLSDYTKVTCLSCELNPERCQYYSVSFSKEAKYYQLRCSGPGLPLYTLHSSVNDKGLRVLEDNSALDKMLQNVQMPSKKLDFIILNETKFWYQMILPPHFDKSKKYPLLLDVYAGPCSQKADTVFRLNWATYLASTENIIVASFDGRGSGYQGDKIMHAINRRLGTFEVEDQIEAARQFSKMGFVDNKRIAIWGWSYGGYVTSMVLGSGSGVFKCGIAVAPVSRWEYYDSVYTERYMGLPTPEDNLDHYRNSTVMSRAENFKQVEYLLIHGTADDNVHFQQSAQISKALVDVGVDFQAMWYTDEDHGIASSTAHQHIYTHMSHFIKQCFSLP

For the compound `N[C@H]1C[C@@H](N2Cc3cn(S(=O)(=O)N4CCOCC4)nc3C2)CO[C@@H]1c1cc(F)ccc1F` [Compound 1, (2R, 3S, 5R)-2-(2,5-difluorophenyl)-5-[2-(morpholinesulfonyl)-2,6-dihydropyrrolo[3,4,-c]pyrazol-5(4H)-yl]tetrahydro-2H-pyran-3-amine], in series [1], the “metabolism stability compared with MK-3102” value is recorded as “better metabolism stability”. The IC50 in series [2] was 0.5 nM.
With `N[C@H]1C[C@@H](N2Cc3cn(S(=O)(=O)N4CCCCC4)nc3C2)CO[C@@H]1c1cc(F)ccc1F` [Compound 2, (2R, 3S, 5R)-2-(2,5-difluorophenyl)-5-[2-(piperidinesulfonyl)-2,6-dihydropyrrolo[3,4,-c]pyrazol-5(4H)-yl]tetrahydro-2H-pyran-3-amine], the IC50 in series [2] worked out at 0.8 nM.
The same measure, in the same setting: with `N[C@H]1C[C@@H](N2Cc3cn(S(=O)(=O)N4CCCC4)nc3C2)CO[C@@H]1c1cc(F)ccc1F` [Compound 3] the figure was 0.3 nM.
On to `CN1CCN(S(=O)(=O)n2cc3c(n2)CN([C@H]2CO[C@H](c4cc(F)ccc4F)[C@@H](N)C2)C3)CC1` [Compound 4, (2R, 3S, 5R)-2-(2,5-difluorophenyl)-5-[2-(N-methylpiperazinesulfonyl)-2,6-dihydropyrrolo[3,4,-c]pyrazol-5(4H)-yl]tetrahydro-2H-pyran-3-amine], for which, in series [1], the “metabolism stability compared with MK-3102” value is “better metabolism stability”. Besides, the IC50 in series [2] came out at 0.6 nM.
Turning to `N[C@H]1C[C@@H](N2Cc3cn(S(=O)(=O)N4CCN(C5CCCC5)CC4)nc3C2)CO[C@@H]1c1cc(F)ccc1F` [Compound 5, (2R, 3S, 5R)-2-(2,5-difluorophenyl)-5-[2-(4-cyclopentylpiperazine-1-yl-sulfonyl)-2,6-dihydropyrrolo[3,4,-c]pyrazol-5(4H)-yl]tetrahydro-2H-pyran-3-amine], the IC50 in series [2] came out at 0.2 nM.
Regarding `N[C@H]1C[C@@H](N2Cc3cn(S(=O)(=O)N4CCC4)nc3C2)CO[C@@H]1c1cc(F)ccc1F` [Compound 13, (2R, 3S, 5R)-2-(2,5-difluorophenyl)-5-[2-(azetidine-1-sulfonyl)-2,6-dihydropyrrolo[3,4,-c]pyrazol-5(4H)-yl]tetrahydro-2H-pyran-3-amine], the IC50 in series [2] stood at 0.5 nM.
`CC1CCN(S(=O)(=O)n2cc3c(n2)CN([C@H]2CO[C@H](c4cc(F)ccc4F)[C@@H](N)C2)C3)CC1` [Compound 14]: the IC50 in series [2] is 0.4 nM.
For `N[C@H]1C[C@@H](N2Cc3cn(S(=O)(=O)N4CC5CCCCC5C4)nc3C2)CO[C@@H]1c1cc(F)ccc1F` (stereo partly drawn) [Compound 15, (2R, 3S, 5R)-2-(2,5-difluorophenyl)-5-[2-(perhydroindole-1 sulfonyl)-2,6-dihydropyrrolo[3,4,-c]pyrazol-5(4H)-yl]tetrahydro-2H-pyran-3-amine], the IC50 in series [2] was determined as 0.7 nM.
